Laboratory results reported in patent US20160298082A1, “METHOD FOR OBTAINING IMMUNO-STIMULATORY DENDRITIC CELLS” (TRANSIMMUNE AG, priority 2013, published 2016).
Entries after “also recorded” stand apart in the source; their conditions may differ.

Legend:
lymphocytes [1] = experiment: Apoptosis of ECP-processed lymphocytes after overnight incubation; type: cell-based, human; conditions: UVA-activated 8-MOP; APO2-PE, Trypan blue and/or annexin/propidium iodide
MoDC [2] = experiment: IL-10 and IL-12p70 ELISA in siRNA experiments; type: cell-based, human; conditions: siRNA experiment, not transfected
Method: Silencer select pre-designed and validated GILZ siRNA (Invitrogen), with off-target prediction algorithms, was used to knockdown GILZ expression. Mo-DC were transfected using Lipofectamine RNAiMAX Reagent (Invitrogen). RNAi duplex and lipofectamine reagent were incubated together for 20 min, then added to MoDC cultures and incubated for 2 hr at 37° C. and 5% CO2. Transfected MoDC were treated in an identical fashion as described for the MoDC/lymphocyte co-cultures. MoDC were also transfected with scramble siRNA.
(§1) Culture supernatants were analyzed in a multiplex format utilizing magnetic beads to IL-6, IL-8, IL-10, IL-12p70, IFN-γ, TNF-α, RANTES, MCP-1, and MIP-1β (BioRad Laboratories). For siRNA experiments, supernatants were analyzed with enzyme-linked immunosorbent assay (ELISA) kits for IL-10 (R&D Systems) and IL-12p70 (Enzo Life Science). All samples and standards were run in duplicate and analyzed using the LUMINEX 200 (LUMINEX), or the BioTek EL800 (BioTek).

lymphocytes [3] = experiment: Apoptosis of lymphocytes (Annexin-V/7-AAD); type: cell-based, human
MoDC [4] = experiment: Cytokine quantification in MoDC supernatants after LPS stimulation (magnetic bead multiplex); type: cell-based, human
Method: Lymphocytes were treated with 8-MOP (100 ng/mL) and UVA (1 J/cm^2), washed with PBS, and co-cultured in complete media at 37° C. and 5% CO2 with either PUVA-treated or untreated-MoDC in a ratio of 5 or 10 lymphocytes to 1 MoDC. MoDC treated for 24 hr with 100 nM dexamethasone (Sigma) served as the positive control group. After 24 hr, cells were harvested and MoDC were re-purified. […] CD11c^+ MoDC were re-plated at 0.5-1.0×10^6 cells/mL in complete media and stimulated with 100 ng/mL LPS (Sigma). 24 hr after LPS stimulation, cells were harvested for RNA isolation and immunophenotyping, and supernatants were collected for cytokine quantification.
as §1

GILZ [5] = experiment: GILZ mRNA expression in CD11c+ MoDC (quantitative real-time PCR); type: cell-based, human
GILZ [6] = experiment: as above; type: cell-based, human; conditions: relative to untreated MoDC cultured alone; 24 hr (FIG. 13B); dex 100 nM; PUVA 100 ng/mL, 1 J/cm^2
Method: Monocytes were cultured at a density of 5×10^6 cells/mL in 6- and 12-well polystyrene tissue culture plates at 37° C. and 5% CO2 in RPMI-1640 (Gibco) supplemented with heat-inactivated 15% AB serum (Gemini) and 1% penicillin/streptomycin (now referred to as complete media). 800 IU/mL recombinant human GM-CSF (R&D Systems) and 1000 IU/mL recombinant human IL-4 (R&D Systems) were added to cultures for 36 hr to induce monocyte to DC differentiation as described.
Non-adherent cells (purity: 66.0±4.5% CD3^+) removed during plastic adherence will now be generally referred to as lymphocytes. Lymphocytes were treated with 8-MOP (100 ng/mL) and UVA (1 J/cm^2), washed with PBS, and co-cultured in complete media at 37° C. and 5% CO2 with either PUVA-treated or untreated-MoDC in a ratio of 5 or 10 lymphocytes to 1 MoDC. […] 24 hr after LPS stimulation, cells were harvested for RNA isolation and immunophenotyping, and supernatants were collected for cytokine quantification.
RNA was isolated from CD11c^+ MoDC using QIAShredder columns (QIAGEN) and the RNeasy Mini Kit (QIAGEN) with on-column Dnase I treatment (QIAGEN). RNA yield and purity were assessed using a NanoDrop ND-1000 spectrophotometer. cDNA was obtained using the High Capacity cDNA Reverse Transcription Kit (Applied Biosystems) in a 96-well thermocycler (MJ Research PTC-200). […]

CD11c+ cells = experiment: Apoptosis / cell death of CD11c+ MoDC (Annexin-V/7-AAD); type: cell-based, human
Method: Immunofluorescence was analyzed using a FACSCalibur L (BD Biosciences) within 2 hr of fixation with 2% paraformaldehyde.

immature MoDC = conditions: 24 hr
monocytes = experiment: Static co-culture of monocytes with platelets; type: cell-based, human; conditions: platelets activated with thrombin; no flow; 18 hours
Method: Experiments involving co-cultures of monocytes with additional platelets were performed as described in the Overnight Culture section, with a few necessary modifications. Following Ficoll-Hypaque separation, mononuclear cells were resuspended in 30% AB serum/RMPI to a final concentration of 10×10^6 cells/ml, of which 1 ml was allocated to each well of a 16-well plate. An additional 1 ml of platelets (suspended in RPMI, at 2× the desired final concentration) or RPMI without platelets was then added to each well. To activate platelets, 500 μl containing 2 units of thrombin was added to half the wells, and 500 μl of RPMI was added to the others to balance the volume. Cells were then incubated as described previously.

P-selectin = experiment: Surface expression of P-selectin on platelets (platelet activation); type: cell-based, human; conditions: platelets activated with thrombin (positive control)
Description: Monoclonal antibodies for immunophenotyping included CD14 (LPS receptor; monocytes), CD11c (integrin subunit; monocytes and DC), HLA-DR (class II MHC molecule), CD83 (DC marker), CD62p (P-selectin; activated platelets), and CD61 (integrin subunit; platelets). Antibodies were obtained from Beckman Coulter (CD14, CD11c, HLADR, CD83) or Sigma (CD62p, CD61) and used at their pre-determined optimal dilutions. Background staining was established with appropriate isotype controls, and immunofluorescence was analyzed using a FC500 flow cytometer (Beckman Coulter). Two-color membrane staining was performed by adding the pre-determined optimal concentrations of both antibodies directly conjugated to FITC or PE and incubating for 20 min at 4° C., followed by washing to remove unbound antibodies. Combined membrane and cytoplasmic staining was performed following manufacturer's instructions for cell fixation and permeabilization (Intraprep kit, Beckman Coulter).
Upon encountering stimuli such as damaged endothelium or thrombin, platelets become activated and almost instantaneously translocate these intracellular proteins to the plasma membrane (Kaplan et al., 1979, see references). […] To test this hypothesis, surface expression of P-selectin, a well-known marker of platelet activation, was assessed before and after adhesion. […]

[7] = 100 ng/mL and 1 J/cm^2, 24 hr after treatment
[8] = 24 hr after LPS stimulation, vs untreated MoDC
[9] = 8-MOP 0 to 200 ng/mL, UVA 1 or 2 J/cm2
[10] = product of 8-MOP and UVA exceeded 100

With COc1c2occc2cc2ccc(=O)oc12 [8-MOP, 8-methoxypsoralen] the “ECP-processed lymphocytes apoptotic after overnight incubation” value (lymphocytes [1]) was 99%, the “IL-10 to IL-12p70 ratio, non-transfected MoDC cultured alone” value (MoDC [2]) was 8.4 and the “IL-10 to IL-12p70 ratio, non-transfected PUVA-DC exposed to ApoL” value (MoDC [2]) was 28.4. For the same molecule, the Early apoptotic lymphocytes (lymphocytes [3]; [7]) was 44.3%, the Late apoptotic lymphocytes (lymphocytes [3]; [7]) was 33.7% and the “Time at which lymphocytes display Annexin-V after treatment” value (lymphocytes [3]; 1 J/cm^2 and 100 ng/mL (data not shown)) was at most 2 h. For the same molecule, the “Lymphocytes Annexin-V+” value (lymphocytes [3]; 24 hr after treatment) was 64.3±3.2%, the IL-10 production (MoDC [4]; [8]) was “increased production of IL-10” and the “Production of pro-inflammatory cytokines and chemokines” value (MoDC [4]; [8]) was “decreased production of all pro-inflammatory cytokines and chemokines tested, except TNF-α and IFN-γ”. For the same molecule, the “Ratio of IL-10 to IL-12p70, MoDC cultured alone” value (MoDC [4]; after LPS, untreated MoDC 6.7) was 38.7, the “Ratio of IL-10 to IL-12p70, PUVA-DC exposed to ApoL” value (MoDC [4]; after LPS, untreated MoDC 6.7) was 114.9 and the GILZ expression (GILZ [5]; 0.5 J/cm^2 UVA) was “no effect on GILZ expression until the 8-MOP concentration reached 200 ng/mL”. The GILZ up-regulation (GILZ [5]; 1 J/cm^2 UVA, 100 ng/mL 8-MOP, 24 hr) was 2.9 fold, the GILZ up-regulation (GILZ [5]; 1 J/cm^2 UVA, 200 ng/mL 8-MOP, 24 hr) was 4.4 fold and the “8-MOP concentration at which dose-dependent GILZ up-regulation starts” value (GILZ [5]; 2 J/cm^2 UVA) was 50 ng/mL. The GILZ expression (GILZ [5]; 8-MOP alone, without UVA, 24 hr) was “did not effect GILZ expression”, the “Time GILZ remains significantly elevated” value (GILZ [5]; 8-MOP and UVA light) was 72 h and the “Time of peak GILZ induction after treatment” value (GILZ [5]; 8-MOP and UVA light) was 24 h. For the same molecule, the “GILZ expression in immature MoDC after 8-MOP plus UVA light (qualitative)” value (GILZ [5]; 24 hr after PUVA) was “up-regulates GILZ”, the GILZ expression increase (GILZ [5]; combination of 8-MOP and UVA light, relative to untreated MoDC (FIG. 10E)) was 5.5 fold and the GILZ up-regulation (GILZ [5]; product of 8-MOP and UVA = 100) was 3 fold. The GILZ up-regulation (GILZ [5]; product of 8-MOP and UVA = 200) was 4.8 fold, the GILZ up-regulation (GILZ [5]; product of 8-MOP and UVA = 400) was 8.6 fold and the “GILZ up-regulation, MoDC cultured alone” value (GILZ [6]) was 2.78 fold. The “Late apoptotic CD11c+ cells” value (CD11c+ cells; 1 J/cm^2, all doses of 8-MOP tested, 24 hr) was “less than 13%”, the “Late apoptotic CD11c+ cells” value (CD11c+ cells; 2 J/cm^2, all doses of 8-MOP tested, 24 hr) was “less than 16%” and the “Early apoptotic CD11c+ cells compared to untreated MoDC” value (CD11c+ cells; 2 J/cm^2 and 200 ng/mL, 24 hr) was “increase”. The Cell death (CD11c+ cells; 4 J/cm^2 UVA (data not shown)) was “high levels of non-specific cell death”, the “Membrane CD83, CD80 and CD86 expression (qualitative)” value (immature MoDC; [9]) was “down-regulates” and the “Membrane HLA-DR expression (qualitative)” value (immature MoDC; [9]) was “up-regulates”. For the same molecule, the “Increase of HLA-DR expression” value (immature MoDC; [10]) was 38%, the “Reduction of CD80 expression” value (immature MoDC; [10]) was 30% and the “Reduction of CD83 expression” value (immature MoDC; [10]) was 31%. The “Reduction of CD86 expression” value (immature MoDC; [10]) was 54%.
For thrombin, the “DC differentiation of monocytes under static conditions” value (monocytes) was “neither activated nor non-activated platelets were capable of inducting DC differentiation; also recorded: did not cause a discernible difference”, the “P-selectin mean fluorescence intensity (MFI)” value (P-selectin) was 108.3±23 and the “Platelets P-selectin positive” value (P-selectin) was 71±18%.
